Experiments:
Assay in all cases: AUC of viability dose-response curve (% viability x log10 dose units); higher = less sensitive
Conditions in all cases: 48 h
SEM cells = test system: SEM cells
Method in brief: (§1)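 Medium-adapted leukemia cells in 1536-well plates, at 500 or 1000 cells/well, were incubated for 48 h at 37°C with library compounds in DMSO at 11 threefold doses from 47 μM to 0.79 nM. CellTiter-Glo One luminescence normalised per plate to DMSO and cell-free wells was fitted with a four-parameter log-logistic model over log10 doses. Area under the curve was integrated from this fit by trapezoidal rule, with curves beyond full viability scaled and failed quality-control curves removed.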

P12-Ichikawa = test system: P12-Ichikawa
Method in brief: as §1

NOMO1 = test system: NOMO1
Method in brief: as §1

[1] = RPMI 5 mM glucose + 10% dialyzed FBS

| Compound | AUC of viability dose-response curve (SEM cells; HPLM + 10% dialyzed FBS) | AUC of viability dose-response curve (SEM cells; RPMI 5 mM glucose + 10% FBS) | AUC of viability dose-response curve (SEM cells; [1]) | AUC of viability dose-response curve (P12-Ichikawa; HPLM + 10% dialyzed FBS) | AUC of viability dose-response curve (P12-Ichikawa; RPMI 5 mM glucose + 10% FBS) | AUC of viability dose-response curve (P12-Ichikawa; [1]) | AUC of viability dose-response curve (NOMO1; HPLM + 10% dialyzed FBS) | AUC of viability dose-response curve (NOMO1; RPMI 5 mM glucose + 10% FBS) | AUC of viability dose-response curve (NOMO1; [1]) |
| --- | --- | --- | --- | --- | --- | --- | --- | --- | --- |
| C[N]1C=NC=C1[C@@](N)(C2=CC=C(Cl)C=C2)C3=CC=C4N(C)C(=O)\C=C(\C5=CC=CC(=C5)Cl)C4=C3 | 284 | 279 | 342 | 377 | 352 | 376 | 398 | 430 | 401 |
| NC(=O)N1c2ccccc2CC(=O)c2ccccc21 | 466 | 427 | 389 | 461 | 456 | 464 | 408 | 444 | 466 |
| FC(F)(F)c1ccc(Nc2nc3cc(Oc4ccnc(-c5ncc(C(F)(F)F)[nH]5)c4)ccc3[nH]2)cc1 | 442 | 439 | 420 | 465 | 460 | 458 | 472 | 466 | 476 |
| O=C(NC1CCNCC1)c1n[nH]cc1NC(=O)c1c(Cl)cccc1Cl | 319 | 323 | 326 | 345 | 341 | 357 | 321 | 332 | 324 |
| COc1cc2ncnc(-n3nc(-c4ccccn4)nc3N)c2cc1OC | 360 | 326 | 317 | 447 | 436 | 413 | 437 | 406 | 418 |
| CCC[C@@H]1C[C@@H](C(=O)N[C@@H]([C@H]2O[C@H](SC)[C@H](O)[C@@H](O)[C@H]2O)[C@@H](C)O)N(C)C1.Cl | 471 | 473 | 465 | 448 | 438 | 399 | 428 | 463 | 457 |
| COC1=CC=C2Nc3cc(Cl)ccc3C(N=C3C=C(CN4CCCC4)C(=O)C(CN4CCCC4)=C3)=C2N1 | 435 | 449 | 437 | 472 | 468 | 469 | 472 | 459 | 475 |
| CCNC(=O)C[C@@H]1\N=C(C2=CC=C(Cl)C=C2)/C3=C(C=CC(=C3)OC)[N]4C(=NN=C14)C | 311 | 299 | 303 | 395 | 396 | 388 | 373 | 392 | 388 |
| COc1cc(N2CCC(C(N)=O)CC2)ccc1Nc1nc(N)c(Cl)c(Nc2ccccc2[S+](=O)([O-])C(C)C)n1 | 360 | 375 | 350 | 445 | 421 | 410 | 381 | 393 | 372 |
